The target of this test is T1, BA/F3-FLT3-ITD + D835Y (Homo sapiens, UniProt P36888, D835Y, cells depend on it, form not given).
T1 sequence (P36888 with tags, fused parts or gaps INS600HVDFREYEYD/D835Y): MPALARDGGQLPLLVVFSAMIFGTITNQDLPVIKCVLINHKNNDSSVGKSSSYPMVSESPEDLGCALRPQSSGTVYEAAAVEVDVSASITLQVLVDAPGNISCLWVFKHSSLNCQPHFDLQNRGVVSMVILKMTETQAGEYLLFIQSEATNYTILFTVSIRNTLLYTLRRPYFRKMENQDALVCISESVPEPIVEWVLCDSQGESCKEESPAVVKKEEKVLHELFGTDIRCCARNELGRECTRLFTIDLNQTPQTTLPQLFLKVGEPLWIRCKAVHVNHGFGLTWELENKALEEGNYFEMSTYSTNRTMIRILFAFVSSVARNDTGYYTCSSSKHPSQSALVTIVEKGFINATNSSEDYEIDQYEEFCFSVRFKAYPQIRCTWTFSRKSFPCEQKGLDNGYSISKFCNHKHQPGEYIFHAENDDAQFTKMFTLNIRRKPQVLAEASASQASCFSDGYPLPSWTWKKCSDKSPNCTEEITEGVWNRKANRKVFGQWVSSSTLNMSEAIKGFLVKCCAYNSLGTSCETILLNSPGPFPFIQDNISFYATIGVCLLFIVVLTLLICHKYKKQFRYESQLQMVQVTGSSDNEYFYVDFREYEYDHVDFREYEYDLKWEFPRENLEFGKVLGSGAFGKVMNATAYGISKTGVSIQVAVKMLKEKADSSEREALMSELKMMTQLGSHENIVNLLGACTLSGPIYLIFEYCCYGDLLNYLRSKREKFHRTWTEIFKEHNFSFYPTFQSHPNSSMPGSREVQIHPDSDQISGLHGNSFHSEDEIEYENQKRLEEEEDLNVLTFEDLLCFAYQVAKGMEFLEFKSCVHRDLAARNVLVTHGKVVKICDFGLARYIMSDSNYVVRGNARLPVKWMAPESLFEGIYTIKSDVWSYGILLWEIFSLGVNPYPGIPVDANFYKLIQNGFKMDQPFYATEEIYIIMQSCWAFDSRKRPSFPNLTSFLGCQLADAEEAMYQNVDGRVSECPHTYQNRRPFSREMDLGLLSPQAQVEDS
Put plainly: Engineered BA/F3 cell growth assay, FLT3 ITD/D835Y. In kind it is cell-based, murine. The following applies: 3 d growth. In outline: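 IC50 derived from CellTiter-Glo ATP luminescence after 3 days at 37 °C, 5% CO2, over eight 1:3 dilutions from 1 μM (0.2% DMSO final). Cells: IL-3-independent murine Ba/F3 expressing full-length FLT3 ITD/D835Y, 1×10^4 per well.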

GI50 data for 24 compounds are collected here from patent US10160747B2, “Compounds and methods for kinase modulation, and indications therefor” (Plexxikon Inc., priority 2016, dated 2018).

Usually GI50 stands for the concentration giving 50% growth inhibition.

`COc1ncc(NC(=O)Cc2ccc(-c3cnc4[nH]c(-c5ccc(C#N)nc5)cc4c3)c(F)c2)cc1C(F)(F)F` [Compound P-0014, 2-[4-[2-(6-cyano-3-pyridyl)-1H-pyrrolo[2,3-b]pyridin-5-yl]-3-fluoro-phenyl]-N-[6-methoxy-5-(trifluoromethyl)-3-pyridyl]acetamide]: the 50% growth inhibitory concentration (GI50) fell in the range of 0.0001 to 10 µM.
With `O=C(Cc1ccc(-c2cnc(Nc3cnn(C4CC4)c3)nc2)cc1)Nc1cnc(Cl)c(C(F)(F)F)c1` [Compound P-0233, N-[6-chloro-5-(trifluoromethyl)-3-pyridyl]-2-[4-[2-[(1-cyclopropylpyrazol-4-yl)amino]pyrimidin-5-yl]phenyl]acetamide] the figure was 0.0001 to 10 µM; with `COCCn1cc(Nc2ncc(-c3ccc(CC(=O)Nc4cncc(C(F)(F)F)c4)c(F)c3)cn2)cn1` [Compound P-0267, 2-[2-fluoro-4-[2-[[1-(2-methoxyethyl)pyrazol-4-yl]amino]pyrimidin-5-yl]phenyl]-N-[5-(trifluoromethyl)-3-pyridyl]acetamide], 0.0001 to 10 µM; with `CCn1cc(Nc2ncc(-c3ccc(CC(=O)Nc4cnc(C)c(C(F)(F)F)c4)cc3F)cn2)cn1` [Compound P-0248, 2-[4-[2-[(1-ethylpyrazol-4-yl)amino]pyrimidin-5-yl]-3-fluoro-phenyl]-N-[6-methyl-5-(trifluoromethyl)-3-pyridyl]acetamide], 0.0001 to 10 µM.
Take `COc1ncc(NC(=O)Cc2ccc(-c3cnc4[nH]nc(Cl)c4c3)cc2)cc1C(F)(F)F` [Compound P-0230, 2-[4-(3-chloro-1H-pyrazolo[3,4-b]pyridin-5-yl)phenyl]-N-[6-methoxy-5-(trifluoromethyl)-3-pyridyl]acetamide]: the GI50 was 0.0001 to 10 µM.
In the case of `O=C(Cc1ccc(-c2cnc(Nc3cnn(C4CC4)c3)nc2)cc1F)Nc1ccc(C(F)(F)F)cn1` [Compound P-0243, 2-[4-[2-[(1-cyclopropylpyrazol-4-yl)amino]pyrimidin-5-yl]-2-fluoro-phenyl]-N-[5-(trifluoromethyl)-2-pyridyl]acetamide], the concentration for 50% growth inhibition (GI50) lay within 0.0001 to 10 µM.
Take `Cn1cc(Nc2ncc(-c3ccc(CC(=O)Nc4cc(C(F)(F)F)ccn4)cc3F)cn2)cn1` [Compound P-0017, 2-[3-fluoro-4-[2-[(1-methylpyrazol-4-yl)amino]pyrimidin-5-yl]phenyl]-N-[4-(trifluoromethyl)-2-pyridyl]acetamide]: the GI50 was in the range of 0.0001 to 10 µM.
Regarding `COc1ncc(NC(=O)Cc2ccc(-c3cnc4[nH]nc(N)c4c3)cc2)cc1C(F)(F)F` [Compound P-0216, 2-(4-(3-amino-1H-pyrazolo[3,4-b]pyridin-5-yl)phenyl)-N-(6-methoxy-5-(trifluoromethyl)pyridin-3-yl)acetamide], the 50% growth inhibitory concentration (GI50) fell in the range of 0.0001 to 10 µM.
Consider `Cc1ncc(NC(=O)Cc2ccc(-c3cnc(Nc4cnn(C)c4C)nc3)cc2)cc1C(F)(F)F` [Compound P-0229, 2-[4-[2-[(1,5-dimethylpyrazol-4-yl)amino]pyrimidin-5-yl]phenyl]-N-[6-methyl-5-(trifluoromethyl)-3-pyridyl]acetamide], for which the GI50 was in the range of 0.0001 to 10 µM.
For `CC(C)(O)C#Cc1cc2cc(-c3ccc(CC(=O)Nc4cncc(C(F)(F)F)c4)cc3)cnc2[nH]1` [Compound P-0204, 2-[4-[2-(3-hydroxy-3-methyl-but-1-ynyl)-1H-pyrrolo[2,3-b]pyridin-5-yl]phenyl]-N-[5-(trifluoromethyl)-3-pyridyl]acetamide], the GI50 fell in the range of 0.0001 to 10 µM.
As to `COc1ncc(NC(=O)Cc2ccc(-c3cnc4[nH]c(C#Cc5cncn5C)cc4c3)cc2)cc1C(F)(F)F` [Compound P-0227, N-[6-methoxy-5-(trifluoromethyl)-3-pyridyl]-2-[4-[2-[2-(3-methylimidazol-4-yl)ethynyl]-1H-pyrrolo[2,3-b]pyridin-5-yl]phenyl]acetamide], the GI50 was in the range of 0.0001 to 10 µM.
`COc1ncc(NC(=O)Cc2ccc(-c3cnc4[nH]c(-c5cnn(C(F)F)c5)cc4c3)cc2F)cc1C(F)(F)F` [Compound P-0015, 2-[4-[2-[1-(difluoromethyl)pyrazol-4-yl]-1H-pyrrolo[2,3-b]pyridin-5-yl]-2-fluoro-phenyl]-N-[6-methoxy-5-(trifluoromethyl)-3-pyridyl]acetamide]: the GI50 was 0.0001 to 10 µM.
For the compound `COc1ncc(NC(=O)Cc2ccc(-c3cnc4[nH]nc(OC)c4c3)cc2)cc1C(F)(F)F` [Compound P-0212, 2-[4-(3-methoxy-1H-pyrazolo[3,4-b]pyridin-5-yl)phenyl]-N-[6-methoxy-5-(trifluoromethyl)-3-pyridyl]acetamide], the GI50 is 0.0001 to 10 µM.
Take `CCn1cc(Nc2ncc(-c3ccc(CC(=O)Nc4cnc(Cl)c(C(F)(F)F)c4)c(F)c3)cn2)cn1` [Compound P-0260, N-[6-chloro-5-(trifluoromethyl)-3-pyridyl]-2-[4-[2-[(1-ethylpyrazol-4-yl)amino]pyrimidin-5-yl]-2-fluoro-phenyl]acetamide]: the 50% growth inhibitory concentration (GI50) is 0.0001 to 10 µM.
Next, `COCCn1cc(Nc2ncc(-c3ccc(CC(=O)Nc4cc(C(F)(F)F)ccn4)c(F)c3)cn2)cn1` [Compound P-0270, 2-[2-fluoro-4-[2-[[1-(2-methoxyethyl)pyrazol-4-yl]amino]pyrimidin-5-yl]phenyl]-N-[4-(trifluoromethyl)-2-pyridyl]acetamide]: 0.0001 to 10 µM; `COCCn1cc(Nc2ncc(-c3ccc(CC(=O)Nc4ccc(C(F)(F)F)cn4)cc3)cn2)cn1` [Compound P-0274, 2-[4-[2-[[1-(2-methoxyethyl)pyrazol-4-yl]amino]pyrimidin-5-yl]phenyl]-N-[5-(trifluoromethyl)-2-pyridyl]acetamide]: 0.0001 to 10 µM.
For `Cc1ncc(NC(=O)Cc2ccc(-c3cnc4[nH]c(C#CC(C)(C)O)cc4c3)cc2)cc1C(F)(F)F` [Compound P-0220, 2-[4-[2-(3-hydroxy-3-methyl-but-1-ynyl)-1H-pyrrolo[2,3-b]pyridin-5-yl]phenyl]-N-[6-methyl-5-(trifluoromethyl)-3-pyridyl]acetamide], the concentration for 50% growth inhibition (GI50) was in the range of 0.0001 to 10 µM.
As for `CCn1cc(Nc2ncc(-c3cc(F)c(CC(=O)Nc4cnc(C)c(C(F)(F)F)c4)cc3F)cn2)cn1` [Compound P-0249, 2-[4-[2-[(1-ethylpyrazol-4-yl)amino]pyrimidin-5-yl]-2,5-difluoro-phenyl]-N-[6-methyl-5-(trifluoromethyl)-3-pyridyl]acetamide], the GI50 fell in the range of 0.0001 to 10 µM.
For the compound `O=C(Cc1ccc(-c2cnc3[nH]c(-c4ccnc(N5CCOCC5)c4)cc3c2)c(F)c1)Nc1cncc(C(F)(F)F)c1` [Compound P-0201, 2-[3-fluoro-4-[2-(2-morpholino-4-pyridyl)-1H-pyrrolo[2,3-b]pyridin-5-yl]phenyl]-N-[5-(trifluoromethyl)-3-pyridyl]acetamide], the concentration for 50% growth inhibition (GI50) was in the range of 0.0001 to 10 µM.
Consider `Cn1cnc(Nc2ncc(-c3cc(F)c(CC(=O)Nc4cc(C(F)(F)F)ccn4)cc3F)cn2)c1` [Compound P-0020, 2-[2,5-difluoro-4-[2-[(1-methylimidazol-4-yl)amino]pyrimidin-5-yl]phenyl]-N-[4-(trifluoromethyl)-2-pyridyl]acetamide], for which the GI50 was in the range of 0.0001 to 10 µM.
In the case of `COc1ncc(NC(=O)Cc2ccc(-c3cnc4[nH]nc(NC(=O)C(F)(F)F)c4c3)cc2)cc1C(F)(F)F` [Compound P-0215, 2,2,2-trifluoro-N-[5-[4-[2-[[6-methoxy-5-(trifluoromethyl)-3-pyridyl]amino]-2-oxo-ethyl]phenyl]-1H-pyrazolo[3,4-b]pyridin-3-yl]acetamide], the concentration for 50% growth inhibition (GI50) was 0.0001 to 10 µM.
Turning to `O=C(Cc1ccc(-c2cnc(Nc3cnn(C4CC4)c3)nc2)cc1)Nc1ccc(C(F)(F)F)cn1` [Compound P-0236, 2-[4-[2-[(1-cyclopropylpyrazol-4-yl)amino]pyrimidin-5-yl]phenyl]-N-[5-(trifluoromethyl)-2-pyridyl]acetamide], the GI50 was 0.0001 to 10 µM.
With `COCCn1cc(Nc2ncc(-c3ccc(CC(=O)Nc4cc(C(F)(F)F)ccn4)cc3)cn2)cn1` [Compound P-0222, 2-[4-[2-[[1-(2-methoxyethyl)pyrazol-4-yl]amino]pyrimidin-5-yl]phenyl]-N-[4-(trifluoromethyl)-2-pyridyl]acetamide] the figure was 0.0001 to 10 µM.
As to `CCn1cc(Nc2ncc(-c3ccc(CC(=O)Nc4ccc(C(F)(F)F)nc4)c(F)c3)cn2)cn1` [Compound P-0257, 2-[4-[2-[(1-ethylpyrazol-4-yl)amino]pyrimidin-5-yl]-2-fluoro-phenyl]-N-[6-(trifluoromethyl)-3-pyridyl]acetamide], the GI50 was in the range of 0.0001 to 10 µM.
